Data as given in US20210403924A1, “Method for selecting cells based on CRISPR/Cas-mediated integration of a detectable tag to a target protein” (Hoffmann-La Roche Inc., priority 2018, published 2021).
Where a name gives a salt, the structure may show the parent alone.

Key:
[1] = CellTiter-Glo cell viability assay, titration of antibiotic concentrations (killing curve); format: cell-based, human; details: human
Method: (§1) HEK293A wild-type cells were treated for 72 h with various concentrations of the antibiotics (a) hygromycin B and (b) puromycin, respectively. Cell viability was determined with the CellTiter-Glo assay.
(§2) The CellTiter-Glo assay was used to determine the number of viable cells in a sample. The method is based on the quantification of the ATP amount as an indicator of metabolically active cells. The CellTiter-Glo Luminescent Cell Viability Assay Kit from Promega was used for the experiments. The CellTiter-Glo reagent was freshly prepared before each experiment. For this purpose, the substrate, which contains inter alia luciferin and a luciferase, was dissolved in the accompanying buffer. After direct addition to the medium of the cells, lysis of the cells occurs first. Viable cells produce ATP in their mitochondria, which is thereby released. In the presence of ATP, the luciferin is converted by the UltraGlo r-luciferase. This produces a stable luminescence signal which is proportional to the amount of ATP present and thus to the number of viable cells.
(§3) The assay was used to optimize transfection and to titrate the optimal antibiotic concentrations of hygromycin B and puromycin for post-transfection selection. In all assays, cells were seeded in a black flat bottom 96-well plate with a transparent bottom. When titrating the antibiotic concentrations, 7,500 cells were seeded per well. The next day, the cells were treated with various concentrations of the antibiotic. After […], the viability of the cells was determined by the assay in which 100 μL of the CellTiter-Glo reagent was added to each well. Subsequently, the plate was shaken on a plate shaker for 2 min. at 200 rpm. After incubation in the dark for 10 minutes, the luminescence signal was measured on the luminometer.

[2] = system: HEK293A wild-type cells; test: as above; format: cell-based, human; details: HEK293A wild-type cells
Method: as §1, §2, §3

Compound	viability at 72 h, 2 μg/mL ([1]; cell viability)	viability at 72 h, 2 μg/mL ([1]; cell viability expected at selection concentration)	cell viability ([2]; 20 μg/mL, 72 h)	cell viability expected at selection concentration ([2]; 50 μg/mL)
COc1ccc(C[C@H](N)C(=O)N[C@H]2[C@@H](O)[C@H](n3cnc4c(N(C)C)ncnc43)O[C@@H]2CO)cc1 [puromycin, Puromycin dihydrochloride]	< 15%	~12%		
CN[C@H]1C[C@@H](N)[C@H](O)[C@@H](O[C@@H]2O[C@H](CO)[C@H](O)[C@@H]3OC4(O[C@H]23)O[C@H]([C@@H](N)CO)[C@H](O)[C@H](O)[C@H]4O)[C@@H]1O (stereo partly shown) [hygromycin B, Hygromycin B]			less than 20%	about 12%
